Experimental data published in PMC7413254 (Nature Communications, 2020).
Like-named read-outs stand apart in the source and are kept apart here.

How the values were obtained:
PfNT1 = biological target: T1, PfNT1 (Plasmodium falciparum, UniProt Q8IDM6); assay: cell-based; type: cell-based; details: total [3H]CQ transport; [test solute]i = 45 mM (intracellular; 30 mM for some solutes due to solubility); mean ± SEM; SEM
T1 construct: expressed in transfected cells; host or cells: Xenopus laevis oocytes (stage V-VI), cRNA-injected
T1 sequence (Q8IDM6 whole entry): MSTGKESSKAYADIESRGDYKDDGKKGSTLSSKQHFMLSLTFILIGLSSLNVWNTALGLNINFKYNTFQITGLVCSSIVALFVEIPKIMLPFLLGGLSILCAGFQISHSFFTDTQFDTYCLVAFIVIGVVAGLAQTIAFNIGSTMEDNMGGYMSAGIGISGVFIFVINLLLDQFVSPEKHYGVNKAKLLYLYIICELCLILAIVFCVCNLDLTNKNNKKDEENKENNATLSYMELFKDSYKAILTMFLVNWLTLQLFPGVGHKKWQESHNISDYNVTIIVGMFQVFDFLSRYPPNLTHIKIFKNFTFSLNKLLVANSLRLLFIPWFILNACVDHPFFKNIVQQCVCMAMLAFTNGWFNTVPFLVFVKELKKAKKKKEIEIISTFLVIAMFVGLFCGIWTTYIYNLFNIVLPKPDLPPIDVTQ
Summary of the method: (§1)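 Oocytes (ten per treatment, ≥4 independent frogs/days) were preloaded by injecting VF-6 in 25 nL ND96 at pH 5.0, 5.5, 6.0 or 7.0, or Na^+-free choline buffer, then uptake run 1.5 h, 27.5 °C, ND96 pH 5.5 by default. Internal concentrations assumed ~400 nL oocyte volume.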

PfCRT^3D7 = PfCRT^3D7 (Plasmodium falciparum, UniProt Q8IBZ9); assay: cell-based; type: cell-based; details: total [3H]CQ transport; for Uptake of [3H]CQ (% PfCRT3D7 control), cis-inhibition: PfCRT3D7 oocytes, normalised to the oocyte type control; for Uptake of [3H]CQ (% PfCRTDd2 control), cis-inhibition, PfCRT3D7: mean ± SEM, SEM
Sequence of PfCRT^3D7 (Q8IBZ9 59-398): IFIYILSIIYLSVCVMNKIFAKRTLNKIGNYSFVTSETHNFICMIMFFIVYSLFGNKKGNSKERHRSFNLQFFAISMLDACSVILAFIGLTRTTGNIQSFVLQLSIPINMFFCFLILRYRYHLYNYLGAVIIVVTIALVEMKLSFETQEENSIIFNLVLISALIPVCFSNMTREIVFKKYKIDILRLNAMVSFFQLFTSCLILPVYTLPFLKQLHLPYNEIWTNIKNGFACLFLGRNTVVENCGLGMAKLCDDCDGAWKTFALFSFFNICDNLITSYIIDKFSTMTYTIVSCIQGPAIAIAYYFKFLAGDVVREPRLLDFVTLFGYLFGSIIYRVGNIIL
Summary of the method: (§2)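 Transport runs from the acidic bath into the cytosol, analogous to PfCRT-mediated efflux out of the vacuole. Non-expressing oocytes act as background.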

non-expressing oocytes = type: cell-based, Xenopus laevis; details: total [3H]CQ transport; for Uptake of [3H]CQ (% non-expressing oocyte control), trans-stimulation: non-expressing oocytes, normalised to the oocyte type control; for Uptake of [3H]CQ (% PfCRTDd2 control), trans-stimulation, non-expressing oocytes: mean ± SEM, SEM
Summary of the method: as §1

PfCRT [1] = assay: Test of solutes as potential co-substrates for influx of VF-6 via PfCRT into the oocyte; type: cell-based, Plasmodium falciparum; parameters: key: X: Compounds that have been tested as potential co-substrates but are not required for influx of VF-6 via PfCRT into the oocyte; details: X = tested
PfCRT^Ecu1110 = PfCRT^Ecu1110 (Plasmodium falciparum, UniProt Q9N623, A220S/I356L/K76T/N326D); assay: [3H]CQ uptake into Xenopus oocytes, cis-inhibition by unlabelled solute; type: cell-based; details: for Uptake of [3H]CQ (% PfCRTEcu1110 control), cis-inhibition / PfCRT-mediated [3H]CQ transport, cis-inhibition (% PfCRTEcu1110 control): PfCRTEcu1110 oocytes; for Uptake of [3H]CQ (% PfCRTEcu1110 control), cis-inhibition / Uptake of [3H]CQ (% PfCRTDd2 control), cis-inhibition, PfCRTEcu1110: total [3H]CQ transport; for Uptake of [3H]CQ (% PfCRTEcu1110 control), cis-inhibition: normalised to the oocyte type control; for PfCRT-mediated [3H]CQ transport, cis-inhibition (% PfCRTEcu1110 control): background [3H]CQ accumulation subtracted, normalised to oocyte type control; for [3H]CQ transport (% PfCRTEcu1110 control), cis-inhibition, PfCRTEcu1110: PfCRT-mediated component (background subtracted), sheet title says normalised to PfCRTDd2 control; for [3H]CQ transport (% PfCRTEcu1110 control), cis-inhibition, PfCRTEcu1110 / Uptake of [3H]CQ (% PfCRTDd2 control), cis-inhibition, PfCRTEcu1110: mean ± SEM, SEM
Sequence of PfCRT^Ecu1110 (Q9N623 whole entry A220S/I356L/K76T/N326D): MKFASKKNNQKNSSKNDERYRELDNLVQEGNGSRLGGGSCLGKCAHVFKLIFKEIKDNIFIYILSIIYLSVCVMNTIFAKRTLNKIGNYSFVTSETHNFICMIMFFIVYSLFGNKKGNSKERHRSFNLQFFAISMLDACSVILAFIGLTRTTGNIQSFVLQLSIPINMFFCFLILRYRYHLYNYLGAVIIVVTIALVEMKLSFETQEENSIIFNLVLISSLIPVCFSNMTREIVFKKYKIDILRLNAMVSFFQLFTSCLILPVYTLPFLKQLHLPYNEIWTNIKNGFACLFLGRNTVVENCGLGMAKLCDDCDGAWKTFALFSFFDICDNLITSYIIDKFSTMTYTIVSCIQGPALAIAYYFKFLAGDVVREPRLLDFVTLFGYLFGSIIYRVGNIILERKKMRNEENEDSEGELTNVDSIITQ
Summary of the method: as §2

PfCRT^Dd2 = PfCRT^Dd2 (Plasmodium falciparum, UniProt Q9N623, A220S/I356T/K76T/M74I/N326S/N75E/Q271E/R371I); assay: as above; type: cell-based; details: for Uptake of [3H]CQ (% PfCRTDd2 control), cis-inhibition / PfCRT-mediated [3H]CQ transport, cis-inhibition (% PfCRTDd2 control): PfCRTDd2 oocytes; for Uptake of [3H]CQ (% PfCRTDd2 control), cis-inhibition / Uptake of [3H]CQ (% PfCRTDd2 control), cis-inhibition, PfCRTDd2: total [3H]CQ transport; for Uptake of [3H]CQ (% PfCRTDd2 control), cis-inhibition: normalised to the oocyte type control; for PfCRT-mediated [3H]CQ transport, cis-inhibition (% PfCRTDd2 control): background [3H]CQ accumulation subtracted, normalised to oocyte type control; for Uptake of [3H]CQ (% PfCRTDd2 control), cis-inhibition, PfCRTDd2: mean ± SEM, SEM
Sequence of PfCRT^Dd2 (Q9N623 whole entry A220S/I356T/K76T/M74I/N326S/N75E/Q271E/R371I): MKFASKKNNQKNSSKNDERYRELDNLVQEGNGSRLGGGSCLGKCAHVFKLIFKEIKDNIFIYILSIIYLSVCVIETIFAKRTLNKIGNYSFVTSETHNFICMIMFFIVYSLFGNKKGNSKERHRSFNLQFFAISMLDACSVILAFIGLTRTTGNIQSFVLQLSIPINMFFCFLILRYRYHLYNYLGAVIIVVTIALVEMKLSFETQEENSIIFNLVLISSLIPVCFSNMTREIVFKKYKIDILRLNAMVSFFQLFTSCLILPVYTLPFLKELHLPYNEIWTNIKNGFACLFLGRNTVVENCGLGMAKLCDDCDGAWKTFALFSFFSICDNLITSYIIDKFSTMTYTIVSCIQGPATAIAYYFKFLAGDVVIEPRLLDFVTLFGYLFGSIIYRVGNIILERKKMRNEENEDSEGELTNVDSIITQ
Summary of the method: as §2

PfCRT [2] = assay: Influx of VF-6 via PfCRT into the oocyte, solutes tested as potential co-substrates; type: cell-based, Plasmodium falciparum; parameters: key: X: Compounds that have been tested as potential co-substrates but are not required for influx of VF-6 via PfCRT into the oocyte; details: X marks the solute

NC(=O)C[C@H](N)C(=O)O [L-asparagine]
Uptake of [3H]CQ (% PfCRTDd2 control), trans-stimulation, PfNT1 (PfNT1): 3.1 ± 0.06 % PfCRTDd2 control | Uptake of [3H]CQ (% PfCRT3D7 control), cis-inhibition (PfCRT^3D7; [test solute] = 0.5 mM): 98 ± 2.4 % PfCRT3D7 control | Uptake of [3H]CQ (% PfCRT3D7 control), cis-inhibition (PfCRT^3D7; [test solute] = 1 mM): 98 ± 3.5 % PfCRT3D7 control | Uptake of [3H]CQ (% PfCRT3D7 control), cis-inhibition (PfCRT^3D7; [test solute] = 2 mM): 101 ± 4.7 % PfCRT3D7 control | Uptake of [3H]CQ (% PfCRTDd2 control), cis-inhibition, PfCRT3D7 (PfCRT^3D7; [test solute] = 0.5 mM): 2.6 ± 0.04 % PfCRTDd2 control | Uptake of [3H]CQ (% PfCRTDd2 control), cis-inhibition, PfCRT3D7 (PfCRT^3D7; [test solute] = 1 mM): 2.2 ± 0.03 % PfCRTDd2 control | Uptake of [3H]CQ (% PfCRTDd2 control), cis-inhibition, PfCRT3D7 (PfCRT^3D7; [test solute] = 2 mM): 3.4 ± 0.07 % PfCRTDd2 control | Uptake of [3H]CQ (% non-expressing oocyte control), trans-stimulation (non-expressing oocytes; [test solute]i = 5 mM): 100 ± 3.7 % non-expressing oocyte control | Uptake of [3H]CQ (% non-expressing oocyte control), trans-stimulation (non-expressing oocytes; [test solute]i = 45 mM (30 mM for some solutes due to solubility)): 99 ± 3.0 % non-expressing oocyte control | Uptake of [3H]CQ (% PfCRTDd2 control), trans-stimulation, non-expressing oocytes (non-expressing oocytes; [test solute]i = 5 mM (intracellular)): 3.2 ± 0.02 % PfCRTDd2 control | Uptake of [3H]CQ (% PfCRTDd2 control), trans-stimulation, non-expressing oocytes (non-expressing oocytes; [test solute]i = 45 mM (intracellular; 30 mM for some solutes due to solubility)): 2.4 ± 0.02 % PfCRTDd2 control | Tested as potential co-substrate but not required for influx of VF-6 via PfCRT into the oocyte (PfCRT [1]): X | Uptake of [3H]CQ (% PfCRTEcu1110 control), cis-inhibition (PfCRT^Ecu1110; [test solute] = 0.5 mM): 96 ± 6.6 % PfCRTEcu1110 control | Uptake of [3H]CQ (% PfCRTEcu1110 control), cis-inhibition (PfCRT^Ecu1110; [test solute] = 1 mM): 88 ± 6.1 % PfCRTEcu1110 control | Uptake of [3H]CQ (% PfCRTEcu1110 control), cis-inhibition (PfCRT^Ecu1110; [test solute] = 2 mM): 102 ± 6.2 % PfCRTEcu1110 control | PfCRT-mediated [3H]CQ transport, cis-inhibition (% PfCRTEcu1110 control) (PfCRT^Ecu1110; [test solute] = 0.5 mM): 94 ± 3.6 % PfCRTEcu1110 control | PfCRT-mediated [3H]CQ transport, cis-inhibition (% PfCRTEcu1110 control) (PfCRT^Ecu1110; [test solute] = 1 mM): 84 ± 4.9 % PfCRTEcu1110 control | PfCRT-mediated [3H]CQ transport, cis-inhibition (% PfCRTEcu1110 control) (PfCRT^Ecu1110; [test solute] = 2 mM): 100 ± 5.1 % PfCRTEcu1110 control | [3H]CQ transport (% PfCRTEcu1110 control), cis-inhibition, PfCRTEcu1110 (PfCRT^Ecu1110; [test solute] = 1 mM): 25 ± 0.6 % PfCRTEcu1110 control | [3H]CQ transport (% PfCRTEcu1110 control), cis-inhibition, PfCRTEcu1110 (PfCRT^Ecu1110; [test solute] = 2 mM): 30 ± 0.2 % PfCRTEcu1110 control | Uptake of [3H]CQ (% PfCRTDd2 control), cis-inhibition, PfCRTEcu1110 (PfCRT^Ecu1110; [test solute] = 0.5 mM): 31 ± 1.5 % PfCRTDd2 control | Uptake of [3H]CQ (% PfCRTDd2 control), cis-inhibition, PfCRTEcu1110 (PfCRT^Ecu1110; [test solute] = 1 mM): 28 ± 1.8 % PfCRTDd2 control | Uptake of [3H]CQ (% PfCRTDd2 control), cis-inhibition, PfCRTEcu1110 (PfCRT^Ecu1110; [test solute] = 2 mM): 33 ± 2.2 % PfCRTDd2 control | Uptake of [3H]CQ (% PfCRTDd2 control), cis-inhibition (PfCRT^Dd2; [test solute] = 0.5 mM): 100 ± 5.3 % PfCRTDd2 control | Uptake of [3H]CQ (% PfCRTDd2 control), cis-inhibition (PfCRT^Dd2; [test solute] = 2 mM): 100 ± 8.5 % PfCRTDd2 control | PfCRT-mediated [3H]CQ transport, cis-inhibition (% PfCRTDd2 control) (PfCRT^Dd2; [test solute] = 0.5 mM): 98 ± 4.1 % PfCRTDd2 control | PfCRT-mediated [3H]CQ transport, cis-inhibition (% PfCRTDd2 control) (PfCRT^Dd2; [test solute] = 1 mM): 99 ± 6.2 % PfCRTDd2 control | PfCRT-mediated [3H]CQ transport, cis-inhibition (% PfCRTDd2 control) (PfCRT^Dd2; [test solute] = 2 mM): 95 ± 3.5 % PfCRTDd2 control | Uptake of [3H]CQ (% PfCRTDd2 control), cis-inhibition, PfCRTDd2 (PfCRT^Dd2; [test solute] = 0.5 mM): 100 ± 5.3 % PfCRTDd2 control | Uptake of [3H]CQ (% PfCRTDd2 control), cis-inhibition, PfCRTDd2 (PfCRT^Dd2; [test solute] = 1 mM): 101 ± 8.1 % PfCRTDd2 control | Uptake of [3H]CQ (% PfCRTDd2 control), cis-inhibition, PfCRTDd2 (PfCRT^Dd2; [test solute] = 2 mM): 100 ± 8.5 % PfCRTDd2 control | Compounds that have been tested as potential co-substrates but are not required for influx of VF-6 via PfCRT into the oocyte (PfCRT [2]): X
